Test results from ChEMBL document CHEMBL1201862, “PubChem BioAssay data set” (2004).
Each block holds one compound with its values, some of them ahead of it. Activity calls are given as the source filed them.

Experiments:
[1] = molecular target: T1, Neuropeptides B/W receptor type 1 (Homo sapiens, UniProt P48145); test: human NPBW1 receptor blockade, IC50 – cell-based, fluorescence, dose response, set 5, late-stage follow-up (AID 588566); format: functional
T1 sequence (P48145 whole entry): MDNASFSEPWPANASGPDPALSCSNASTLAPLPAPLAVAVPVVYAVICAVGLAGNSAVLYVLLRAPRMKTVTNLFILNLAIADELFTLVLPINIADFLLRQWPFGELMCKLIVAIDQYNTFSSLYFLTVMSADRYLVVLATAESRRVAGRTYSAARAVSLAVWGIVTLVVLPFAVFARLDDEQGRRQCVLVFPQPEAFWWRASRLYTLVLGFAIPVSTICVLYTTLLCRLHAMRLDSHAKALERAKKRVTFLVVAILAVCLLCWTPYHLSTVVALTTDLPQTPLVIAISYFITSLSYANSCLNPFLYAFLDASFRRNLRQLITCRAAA

[2] = molecular target: T2, Melanin-concentrating hormone receptor 1 (Homo sapiens, UniProt Q99705); test: Late-stage fluorescence-based counterscreen for antagonists of the G-protein coupled receptor 7 (GPR7): cell-based dose response assay to identify antagonists of the melanin-concentrating hormone receptor 1 (MCHR1) Set 5.; format: functional
T2 sequence (Q99705 whole entry): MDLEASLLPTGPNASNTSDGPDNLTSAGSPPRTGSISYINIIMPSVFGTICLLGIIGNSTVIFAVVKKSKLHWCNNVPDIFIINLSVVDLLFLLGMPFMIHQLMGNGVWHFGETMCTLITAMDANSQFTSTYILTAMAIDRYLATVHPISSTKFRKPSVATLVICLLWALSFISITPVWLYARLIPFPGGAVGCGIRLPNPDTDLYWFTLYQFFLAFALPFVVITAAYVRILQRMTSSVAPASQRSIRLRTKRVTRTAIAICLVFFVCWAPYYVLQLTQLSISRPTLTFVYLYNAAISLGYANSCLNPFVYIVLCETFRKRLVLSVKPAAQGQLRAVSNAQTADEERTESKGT

[3] = SAR analysis of small molecule activators of Apaf-1 using a LZ-Caspase-9/Caspase-3 Fluorescent Selectivity assay - Set 2.; format: functional; settings: read-out: EC50_Mean
[4] = molecular target: T3, Apoptotic protease-activating factor 1 (Homo sapiens, UniProt O14727); test: SAR analysis of small molecule Activators of Apaf-1 in a Fluorescent assay - set 2.; format: functional; settings: read-out: EC50_Mean
T3 sequence (O14727 whole entry): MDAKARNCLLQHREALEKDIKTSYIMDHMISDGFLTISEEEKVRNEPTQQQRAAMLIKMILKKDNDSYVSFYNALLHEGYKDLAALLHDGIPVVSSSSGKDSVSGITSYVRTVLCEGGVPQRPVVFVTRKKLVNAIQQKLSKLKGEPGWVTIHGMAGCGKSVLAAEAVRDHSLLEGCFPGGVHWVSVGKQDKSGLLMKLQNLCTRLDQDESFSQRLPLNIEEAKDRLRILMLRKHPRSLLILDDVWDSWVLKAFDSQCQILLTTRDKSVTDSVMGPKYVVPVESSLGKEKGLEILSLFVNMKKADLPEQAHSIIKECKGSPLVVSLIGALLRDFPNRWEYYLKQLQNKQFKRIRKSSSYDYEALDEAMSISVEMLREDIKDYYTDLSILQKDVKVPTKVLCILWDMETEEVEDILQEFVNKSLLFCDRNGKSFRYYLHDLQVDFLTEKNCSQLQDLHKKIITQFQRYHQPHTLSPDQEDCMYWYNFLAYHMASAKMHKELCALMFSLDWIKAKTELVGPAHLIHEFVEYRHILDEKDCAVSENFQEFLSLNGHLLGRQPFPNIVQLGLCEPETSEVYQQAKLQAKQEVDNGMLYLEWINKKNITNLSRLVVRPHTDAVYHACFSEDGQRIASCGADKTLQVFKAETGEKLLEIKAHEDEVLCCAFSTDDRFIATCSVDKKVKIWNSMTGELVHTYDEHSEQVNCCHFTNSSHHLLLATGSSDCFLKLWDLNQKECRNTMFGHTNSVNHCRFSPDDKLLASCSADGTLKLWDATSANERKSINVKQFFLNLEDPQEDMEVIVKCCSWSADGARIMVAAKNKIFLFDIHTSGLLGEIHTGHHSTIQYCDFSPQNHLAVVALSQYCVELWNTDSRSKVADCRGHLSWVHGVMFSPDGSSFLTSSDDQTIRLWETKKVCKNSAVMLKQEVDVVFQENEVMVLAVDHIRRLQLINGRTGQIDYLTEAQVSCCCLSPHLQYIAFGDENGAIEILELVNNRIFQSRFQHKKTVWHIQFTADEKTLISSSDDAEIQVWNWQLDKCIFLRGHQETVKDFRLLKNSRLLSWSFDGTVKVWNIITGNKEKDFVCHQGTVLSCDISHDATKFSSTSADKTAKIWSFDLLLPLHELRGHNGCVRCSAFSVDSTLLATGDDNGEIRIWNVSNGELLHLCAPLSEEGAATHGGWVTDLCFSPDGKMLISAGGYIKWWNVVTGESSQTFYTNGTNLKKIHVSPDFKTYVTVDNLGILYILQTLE

[5] = molecular target: T3, Apoptotic protease-activating factor 1; test: SAR analysis of small molecule Activators of Apaf-1 in a Fluorescent assay.; format: functional; settings: read-out: EC50_Mean
[6] = molecular target: T4, Serine/threonine-protein kinase Chk1 (Homo sapiens, UniProt O14757); format: functional;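 further: measured as one member of a kinome-wide kinase profiling panel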
T4 sequence (O14757 whole entry): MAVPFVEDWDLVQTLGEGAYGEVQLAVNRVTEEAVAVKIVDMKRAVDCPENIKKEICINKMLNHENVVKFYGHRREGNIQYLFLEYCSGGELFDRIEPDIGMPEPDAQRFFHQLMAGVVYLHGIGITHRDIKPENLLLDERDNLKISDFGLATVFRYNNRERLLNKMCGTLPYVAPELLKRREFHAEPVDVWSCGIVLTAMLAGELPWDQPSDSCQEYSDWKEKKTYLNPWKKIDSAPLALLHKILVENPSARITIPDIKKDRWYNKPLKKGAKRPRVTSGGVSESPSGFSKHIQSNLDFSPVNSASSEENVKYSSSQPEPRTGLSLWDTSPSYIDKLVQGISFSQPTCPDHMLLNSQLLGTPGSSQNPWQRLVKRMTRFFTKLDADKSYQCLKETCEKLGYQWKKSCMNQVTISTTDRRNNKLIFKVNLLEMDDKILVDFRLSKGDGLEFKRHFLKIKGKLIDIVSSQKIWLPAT

[7] = molecular target: Cyclin-dependent kinase 9 (Homo sapiens, UniProt P50750); format: functional;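 further: value from the CDK9 entry of a kinome-spanning kinase panel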
Sequence of Cyclin-dependent kinase 9 (P50750 whole entry, the tested form may be a part): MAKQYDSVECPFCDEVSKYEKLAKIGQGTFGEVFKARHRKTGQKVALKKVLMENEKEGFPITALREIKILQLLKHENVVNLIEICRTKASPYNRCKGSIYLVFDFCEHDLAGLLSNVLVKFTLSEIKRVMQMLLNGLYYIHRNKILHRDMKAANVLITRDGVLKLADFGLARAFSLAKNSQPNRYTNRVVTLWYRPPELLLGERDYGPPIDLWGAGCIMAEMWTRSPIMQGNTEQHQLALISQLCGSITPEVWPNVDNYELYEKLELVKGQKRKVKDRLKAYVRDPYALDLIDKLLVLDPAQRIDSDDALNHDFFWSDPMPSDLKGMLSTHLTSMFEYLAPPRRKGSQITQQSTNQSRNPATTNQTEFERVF

LIM domain kinase 1 = LIM domain kinase 1 (Homo sapiens, UniProt P53667); test: Navigating the Kinome. Panel member name: LIMK1; format: functional
[8] = molecular target: Vascular endothelial growth factor receptor 2 (Homo sapiens, UniProt P35968); format: functional
[9] = molecular target: Leukocyte tyrosine kinase receptor (Homo sapiens, UniProt P29376); test: Navigating the Kinome. Panel member name: LTK; format: functional
[10] = molecular target: Dual specificity tyrosine-phosphorylation-regulated kinase 1A (Homo sapiens, UniProt Q13627); format: functional;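 further: measured against DYRK1A as one member of a broad kinome profiling panel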
[11] = molecular target: Macrophage colony-stimulating factor 1 receptor (Homo sapiens, UniProt P07333); format: functional;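 further: value comes from the Navigating the Kinome screening panel, CSF1R member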
[12] = molecular target: ALK tyrosine kinase receptor (Homo sapiens, UniProt Q9UM73); format: functional;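 further: ALK tested as one member of a kinase panel screen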
Sequence of ALK tyrosine kinase receptor (Q9UM73 whole entry): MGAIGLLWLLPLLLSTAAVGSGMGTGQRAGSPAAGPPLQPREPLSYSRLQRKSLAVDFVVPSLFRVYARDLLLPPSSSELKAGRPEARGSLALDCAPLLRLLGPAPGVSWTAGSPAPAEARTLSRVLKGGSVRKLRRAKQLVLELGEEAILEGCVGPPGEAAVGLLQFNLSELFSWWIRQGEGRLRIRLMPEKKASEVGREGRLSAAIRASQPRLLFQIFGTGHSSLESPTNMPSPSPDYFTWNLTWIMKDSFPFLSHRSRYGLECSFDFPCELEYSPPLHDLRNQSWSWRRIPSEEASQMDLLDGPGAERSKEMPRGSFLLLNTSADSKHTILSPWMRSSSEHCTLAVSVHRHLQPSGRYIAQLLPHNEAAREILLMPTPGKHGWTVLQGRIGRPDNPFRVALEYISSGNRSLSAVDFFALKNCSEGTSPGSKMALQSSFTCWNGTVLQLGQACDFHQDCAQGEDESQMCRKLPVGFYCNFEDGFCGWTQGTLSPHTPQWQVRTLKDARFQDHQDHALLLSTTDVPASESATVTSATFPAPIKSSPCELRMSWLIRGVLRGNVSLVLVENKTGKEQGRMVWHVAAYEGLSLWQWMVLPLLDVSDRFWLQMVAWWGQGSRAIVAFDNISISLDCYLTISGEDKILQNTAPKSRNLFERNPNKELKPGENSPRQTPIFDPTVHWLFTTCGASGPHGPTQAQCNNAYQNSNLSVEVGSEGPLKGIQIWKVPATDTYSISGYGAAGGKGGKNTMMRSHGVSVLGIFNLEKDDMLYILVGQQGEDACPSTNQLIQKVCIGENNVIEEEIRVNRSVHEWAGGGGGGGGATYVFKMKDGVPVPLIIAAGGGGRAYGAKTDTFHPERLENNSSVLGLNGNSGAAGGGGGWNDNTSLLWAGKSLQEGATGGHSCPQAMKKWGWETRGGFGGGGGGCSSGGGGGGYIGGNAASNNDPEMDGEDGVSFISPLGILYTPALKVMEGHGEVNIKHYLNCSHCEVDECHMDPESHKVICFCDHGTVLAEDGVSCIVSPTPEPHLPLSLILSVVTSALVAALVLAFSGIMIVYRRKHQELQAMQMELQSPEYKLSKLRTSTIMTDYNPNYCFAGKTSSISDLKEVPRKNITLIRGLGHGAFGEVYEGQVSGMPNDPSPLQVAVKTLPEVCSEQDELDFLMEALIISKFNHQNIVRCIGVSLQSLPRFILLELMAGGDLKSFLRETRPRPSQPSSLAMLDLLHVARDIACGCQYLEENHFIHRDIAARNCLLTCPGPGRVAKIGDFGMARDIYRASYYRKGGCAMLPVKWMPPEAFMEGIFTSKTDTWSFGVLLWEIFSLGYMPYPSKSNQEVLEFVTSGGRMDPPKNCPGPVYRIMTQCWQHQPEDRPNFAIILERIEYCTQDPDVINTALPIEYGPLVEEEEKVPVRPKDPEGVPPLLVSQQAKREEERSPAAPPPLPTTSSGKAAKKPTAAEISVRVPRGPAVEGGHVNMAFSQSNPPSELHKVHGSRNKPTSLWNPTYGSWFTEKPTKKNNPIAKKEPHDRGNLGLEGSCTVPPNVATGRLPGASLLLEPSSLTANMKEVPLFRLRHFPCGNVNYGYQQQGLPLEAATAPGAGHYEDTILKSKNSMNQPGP

[13] = molecular target: cAMP-dependent protein kinase catalytic subunit alpha (Homo sapiens, UniProt P17612); format: functional
[14] = molecular target: Dual specificity tyrosine-phosphorylation-regulated kinase 1B (Homo sapiens, UniProt Q9Y463); test: Navigating the Kinome. Panel member name: DYRK1B; format: functional
Sequence of Dual specificity tyrosine-phosphorylation-regulated kinase 1B (Q9Y463 whole entry): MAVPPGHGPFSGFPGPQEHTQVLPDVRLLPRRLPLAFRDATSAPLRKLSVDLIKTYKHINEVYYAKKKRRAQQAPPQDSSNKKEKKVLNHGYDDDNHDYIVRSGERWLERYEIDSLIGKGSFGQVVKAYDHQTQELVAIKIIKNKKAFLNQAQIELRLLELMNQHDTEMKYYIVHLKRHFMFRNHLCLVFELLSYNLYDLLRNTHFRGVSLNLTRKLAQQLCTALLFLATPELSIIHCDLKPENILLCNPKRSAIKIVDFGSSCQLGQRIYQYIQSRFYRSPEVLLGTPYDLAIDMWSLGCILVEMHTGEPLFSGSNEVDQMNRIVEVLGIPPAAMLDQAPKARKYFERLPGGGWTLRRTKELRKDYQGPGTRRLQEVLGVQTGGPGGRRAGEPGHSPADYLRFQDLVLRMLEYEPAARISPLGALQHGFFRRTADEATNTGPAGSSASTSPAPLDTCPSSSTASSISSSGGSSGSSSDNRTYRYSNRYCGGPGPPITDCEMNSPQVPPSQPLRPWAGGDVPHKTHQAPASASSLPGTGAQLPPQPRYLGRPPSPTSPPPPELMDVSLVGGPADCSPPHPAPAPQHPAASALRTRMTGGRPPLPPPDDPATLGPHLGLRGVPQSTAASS

[15] = molecular target: Cyclin-dependent kinase 19 (Homo sapiens, UniProt Q9BWU1); test: Navigating the Kinome. Panel member name: CDC2L6; format: functional
[16] = molecular target: Platelet-derived growth factor receptor beta (Homo sapiens, UniProt P09619); format: functional;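 further: value comes from a kinome panel, with PDGFRB tested as one panel member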
Sequence of Platelet-derived growth factor receptor beta (P09619 whole entry): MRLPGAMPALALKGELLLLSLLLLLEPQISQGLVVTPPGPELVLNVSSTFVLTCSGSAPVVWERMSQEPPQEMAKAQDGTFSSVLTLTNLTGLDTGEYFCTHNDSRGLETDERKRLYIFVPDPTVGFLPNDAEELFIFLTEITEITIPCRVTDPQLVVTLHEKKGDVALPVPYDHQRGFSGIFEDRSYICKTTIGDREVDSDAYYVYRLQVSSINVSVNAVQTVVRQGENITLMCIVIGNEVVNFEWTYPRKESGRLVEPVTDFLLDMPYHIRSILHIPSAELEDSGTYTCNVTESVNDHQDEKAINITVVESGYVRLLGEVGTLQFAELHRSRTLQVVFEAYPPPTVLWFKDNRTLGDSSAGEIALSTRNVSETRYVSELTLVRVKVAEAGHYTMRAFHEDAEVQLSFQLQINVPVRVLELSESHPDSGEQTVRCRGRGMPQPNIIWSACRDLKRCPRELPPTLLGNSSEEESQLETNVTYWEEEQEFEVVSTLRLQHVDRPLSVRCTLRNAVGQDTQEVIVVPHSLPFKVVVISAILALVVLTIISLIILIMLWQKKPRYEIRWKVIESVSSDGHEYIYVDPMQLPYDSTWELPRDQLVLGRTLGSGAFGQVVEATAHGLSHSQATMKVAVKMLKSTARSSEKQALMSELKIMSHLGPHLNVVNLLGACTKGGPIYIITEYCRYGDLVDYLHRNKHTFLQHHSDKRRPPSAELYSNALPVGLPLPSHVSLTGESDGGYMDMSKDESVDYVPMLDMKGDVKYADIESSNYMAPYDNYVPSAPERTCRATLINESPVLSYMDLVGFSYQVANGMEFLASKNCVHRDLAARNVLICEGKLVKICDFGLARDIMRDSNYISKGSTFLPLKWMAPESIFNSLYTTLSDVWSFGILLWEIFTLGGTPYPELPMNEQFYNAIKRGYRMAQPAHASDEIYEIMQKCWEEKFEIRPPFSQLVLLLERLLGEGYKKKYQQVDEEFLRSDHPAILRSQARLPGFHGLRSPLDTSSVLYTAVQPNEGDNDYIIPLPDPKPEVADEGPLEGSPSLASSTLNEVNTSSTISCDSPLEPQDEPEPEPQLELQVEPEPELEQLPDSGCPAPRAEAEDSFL

Aurora kinase A = molecular target: T5, Aurora kinase A (Homo sapiens, UniProt O14965); format: functional;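 further: value from the Navigating the Kinome kinase panel profiling, panel entry STK6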
T5 sequence (O14965 whole entry): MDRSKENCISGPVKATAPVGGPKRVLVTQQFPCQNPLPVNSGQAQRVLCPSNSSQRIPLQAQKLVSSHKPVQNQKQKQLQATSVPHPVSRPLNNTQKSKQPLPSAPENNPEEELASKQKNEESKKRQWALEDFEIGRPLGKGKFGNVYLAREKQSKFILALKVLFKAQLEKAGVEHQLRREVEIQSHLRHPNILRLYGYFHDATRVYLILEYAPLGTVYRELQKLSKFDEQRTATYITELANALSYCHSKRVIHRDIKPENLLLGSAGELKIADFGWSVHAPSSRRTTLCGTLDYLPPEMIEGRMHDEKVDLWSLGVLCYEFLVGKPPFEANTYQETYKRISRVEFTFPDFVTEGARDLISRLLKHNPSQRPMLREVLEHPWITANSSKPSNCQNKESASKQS

[17] = molecular target: Protein kinase C theta type (Homo sapiens, UniProt Q04759); test: Navigating the Kinome. Panel member name: PRKCQ; format: functional
[18] = molecular target: Rho-associated protein kinase 1 (Homo sapiens, UniProt Q13464); format: functional;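 further: measured within a broad kinome-wide panel profiling many kinases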
[19] = molecular target: Tyrosine-protein kinase ABL1 (Homo sapiens, UniProt P00519); format: functional
[20] = molecular target: Death-associated protein kinase 3 (Homo sapiens, UniProt O43293); format: functional;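 further: measured as one member of a kinome-wide profiling panel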
[21] = molecular target: T1, Neuropeptides B/W receptor type 1; test: human NPBW1 receptor blockade, IC50 – cell-based, fluorescence, dose response, set 6, late-stage follow-up (AID 588583); format: functional
[22] = molecular target: T2, Melanin-concentrating hormone receptor 1; test: Late-stage fluorescence-based counterscreen for antagonists of the G-protein coupled receptor 7 (GPR7): cell-based dose response assay to identify antagonists of the melanin-concentrating hormone receptor 1 (MCHR1) Set 6.; format: functional
[23] = molecular target: T6, DNA dC->dU-editing enzyme APOBEC-3G (Homo sapiens, UniProt Q9HC16); test: SAR analysis of small molecule inhibitors of APOBEC3G DNA Deaminase via a fluorescence-based single-stranded DNA deaminase assay - Set 2.; format: functional; settings: read-out: IC50_Mean
T6 sequence (Q9HC16 whole entry): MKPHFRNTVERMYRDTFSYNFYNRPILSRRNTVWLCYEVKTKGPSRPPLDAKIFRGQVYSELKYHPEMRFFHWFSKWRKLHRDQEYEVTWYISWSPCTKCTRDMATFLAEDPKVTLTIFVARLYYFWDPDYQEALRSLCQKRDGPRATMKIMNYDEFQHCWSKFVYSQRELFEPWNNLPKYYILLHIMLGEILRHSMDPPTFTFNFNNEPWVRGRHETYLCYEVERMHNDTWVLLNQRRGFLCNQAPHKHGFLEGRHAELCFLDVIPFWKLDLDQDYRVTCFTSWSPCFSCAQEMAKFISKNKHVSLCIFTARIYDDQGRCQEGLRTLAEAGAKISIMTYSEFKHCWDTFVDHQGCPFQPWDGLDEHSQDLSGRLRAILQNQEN

Bcl-2-like protein 10 = molecular target: T7, Bcl-2-like protein 10 (Homo sapiens, UniProt Q9HD36); test: Bcl-B/TR3 peptide binding disruption – biochemical, fluorescence polarization, FITC-TR3 peptide, selectivity assay for Bfl-1 inhibitor project, primary screen (AID 748);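 further: fluorescence polarization from a fluorescein-labelled TR3 peptide binding purified Bcl-B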
T7 sequence (Q9HD36 whole entry): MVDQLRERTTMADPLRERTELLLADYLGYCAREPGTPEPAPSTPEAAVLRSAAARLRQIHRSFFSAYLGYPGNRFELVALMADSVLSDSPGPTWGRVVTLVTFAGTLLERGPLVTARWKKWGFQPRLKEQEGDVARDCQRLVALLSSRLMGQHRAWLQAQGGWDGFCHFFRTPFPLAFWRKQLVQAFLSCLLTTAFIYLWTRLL

[24] = molecular target: T8, DNA dC->dU-editing enzyme APOBEC-3A (Homo sapiens, UniProt P31941); test: SAR analysis of small molecule inhibitors of APOBEC3A DNA Deaminase via a fluorescence-based single-stranded DNA deaminase assay - Set 2.; format: functional; settings: read-out: IC50_Mean
T8 sequence (P31941 whole entry): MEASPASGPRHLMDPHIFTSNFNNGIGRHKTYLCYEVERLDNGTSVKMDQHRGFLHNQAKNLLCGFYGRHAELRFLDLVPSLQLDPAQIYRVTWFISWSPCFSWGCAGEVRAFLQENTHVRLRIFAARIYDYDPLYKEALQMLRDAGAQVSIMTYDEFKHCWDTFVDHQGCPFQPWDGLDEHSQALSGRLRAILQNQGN

[25] = molecular target: T8, DNA dC->dU-editing enzyme APOBEC-3A; test: SAR analysis of small molecule inhibitors of APOBEC3A DNA Deaminase via a fluorescence-based single-stranded DNA deaminase assay.; format: functional; settings: read-out: IC50_Mean
[26] = molecular target: T6, DNA dC->dU-editing enzyme APOBEC-3G; test: inhibition of APOBEC3G ssDNA deamination – biochemical, fluorescence, single-stranded DNA substrate, SAR follow-up (AID 602136); format: functional; settings: read-out: IC50_Mean
Protein Tat = molecular target: T9, Protein Tat (Human immunodeficiency virus type 1 group M subtype B (isolate HXB2)(HIV-1), UniProt P04608); format: functional;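 further: tat binding to TAR RNA read out by fluorescence polarization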
T9 sequence (P04608 whole entry): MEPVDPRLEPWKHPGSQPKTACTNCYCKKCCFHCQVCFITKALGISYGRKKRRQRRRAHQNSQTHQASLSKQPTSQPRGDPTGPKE

- IC50 [1]: 1.76 µM (active)
- IC50 [2]: 0.91 µM (active)
Structure (SMILES): COc1ccc(Oc2c(C=O)cnn(Cc3cccc4ccccc34)c2=O)cc1

- Ki [6]: 12.6 µM (active)
- Ki [7]: > 63.1 µM (inactive)
- Ki (LIM domain kinase 1): 31.6 µM (active)
- Ki [8]: 39.8 µM (active)
- Ki [9]: 3.16 µM (active)
- Ki [10]: > 79.4 µM (inactive)
- Ki [11]: > 100 µM (inactive)
- Ki [12]: 6.31 µM (active)
- Ki [13]: 50.1 µM (active)
- Ki [14]: 63.1 µM (active)
- Ki [15]: > 100 µM (inactive)
- Ki [16]: > 79.4 µM (inactive)
- Ki (Aurora kinase A): > 63.1 µM (inactive)
- Ki [17]: > 100 µM (inactive)
- Ki [18]: 12.6 µM (active)
- Ki [19]: 50.1 µM (active)
Structure (SMILES): Nc1ccc(-c2cccn3c(=O)[nH]nc23)cc1
- Ki [20]: 79.4 µM (active)

Second part, the compound before the results:

Structure (SMILES): Cc1cc(C)n(C(C)C(C)C(=O)O)n1 (stereo not given)
- EC50 [3]: > 100 µM (inactive)
- EC50 [4]: > 100 µM (inactive)
- EC50 [5]: > 100 µM (inactive)

Structure (SMILES): N#CC(c1ccccc1)c1ccnn(Cc2cccc3ccccc23)c1=O (stereo not given)
- IC50 [21]: > 20 µM (inactive)
- IC50 [22]: > 20 µM (inactive)

Structure (SMILES): Cc1ccc(C)n1Cc1ccc(C(=O)O)cc1
- IC50 [23]: 1.98 µM (active)
- IC50 (Bcl-2-like protein 10): 6.93 µM (active)
- IC50 [24]: 4.11 µM (active)
- IC50 [25]: 52.6 µM (inactive)
- IC50 [26]: 39.3 µM (inactive)
- IC50 (Protein Tat): 3.45 µM (inconclusive)
